The text below walks through data of ChEMBL document CHEMBL1122746, “Tumor inhibitory triazenes. 3. Dealkylation within an homologous series and its relation to antitumor activity” (J Med Chem, 1984).

Series [1] deals with Mus musculus. Nature of the series: Antitumor activity is evaluated as the percent increase in lifespan of TLX/5 tumor bearing animals at 100 mg/kg, daily x 5. Type of series: functional.
Series [2] relates to Mus musculus. The experiment in a line: Antitumor activity is evaluated as the percent increase in lifespan of TLX/5 tumor bearing animals at 12.5 mg/kg, daily x 5. Type of series: functional.
Series [3] has as its system Mus musculus. Nature of the series: Antitumor activity is evaluated as the percent increase in lifespan of TLX/5 tumor bearing animals at 200 mg/kg, daily x 5. It is filed as functional.
The test system of series [4] is Mus musculus. Nature of the series: Antitumor activity is evaluated as the percent increase in lifespan of TLX/5 tumor bearing animals at 25 mg/kg, daily x 5. Type of series: functional.
Series [5] deals with Mus musculus. The experiment in a line: Antitumor activity is evaluated as the percent increase in lifespan of TLX/5 tumor bearing animals at 50 mg/kg, daily x 5. It is filed as functional.
Series [6] is described as follows: Partition coefficient (logP). It is filed as physicochemical. As to conditions: octanol/water.
The subject of series [7] is Mus musculus. The experiment in a line: Antitumor activity is evaluated as the percent increase in lifespan of TLX/5 tumor bearing animals at 400 mg/kg, daily x 5. Type of series: functional.
The species entered for series [8] is Mus musculus. Nature of the series: (§1) Compound is evaluated in vitro for percent metabolism by mouse liver microsomes. It is filed as functional. On the set-up: concentration or dose not given beside the values. Background: Liver microsomes are vesicles of endoplasmic reticulum, rich in cytochrome P450 enzymes.
The species named for series [9] is Mus musculus. Nature of the series: (§2) Compound is evaluated in vitro for percent dealkylation by mouse liver microsomes. Type of series: functional. Set-up: concentration or dose not given beside the values.
The species named for series [10] is Mus musculus. Nature of the series: Compound is evaluated in vitro for percent demethylation by mouse liver microsomes. It is filed as functional.
Series [11] is filed under the species Mus musculus. Nature of the series: Compound is evaluated for maximum percentage of increase in life span (ILS) in tumor bearing mice.
Series [12] is filed under the species Mus musculus. Described as §2. Type of series: functional.
For series [13], the species on record is Mus musculus. Described as §1. Type of series: functional.

As for `CN(/N=N/c1ccc(C(N)=O)cc1)C(C)(C)C`, the Increase was 0% in [1]; 4% in series [2]; 0% in series [3]; -4% in [4]; -2% in series [5].

The term logP denotes the decadic logarithm of the partition coefficient of the neutral form, usually between octanol and water. Turning to `CCCCCN(C)/N=N/c1ccc(C(=O)O)cc1`, the logP in [6] (read-out: logP) worked out at 1.49.

Turning to `C=CCN(C)/N=N/c1ccc(C(=O)O)cc1`, the logP in series [6] (read-out: logP) came out at 0.32.

Consider `CCCCCN(C)/N=N/c1ccc(C(N)=O)cc1`, for which the Increase in [1] was 71%; in series [2], 3%; in [3], -28%; in series [4], 7%; in series [7], -51%; in series [5], 79%. In addition, the Activity came to 41.5% in [8], 23.5% in [9] and 18% in [10]. Moreover, the max % ILS per µmol/kg in series [11] turned out to be 0.392 %·kg/µmol.

In the case of `CCCCCCN(C)/N=N/c1ccc(C(=O)O)cc1`, in [6] (read-out: logP), the log partition coefficient (logP) came out at 1.95.

For `CN(CCO)/N=N/c1ccc(C(N)=O)cc1`, the Increase in series [1] was 7%; in [2], 1%; in [3], 42%; in [4], 0%; in [7] it was 38%; in series [5], 5%. The same compound displayed a max % ILS per µmol/kg in series [11] of 0.047 %·kg/µmol.

For `C#CCN(C)/N=N/c1ccc(C(=O)O)cc1`, in series [6] (read-out: logP), the lipophilicity (logP) was found to be 0.

In series [6], `CN(C)/N=N/c1ccc(C(=O)O)cc1` came in with a logP of -0.44.

Consider `CON(C)/N=N/c1ccc(C(N)=O)cc1`, for which the Increase in [1] is -3%; in series [2] it was -3%; in series [3], -7%; in series [4], -3%; in [7] it was -3%; in series [5], -5%.

As to `CCCCCCCN(C)/N=N/c1ccc(C(N)=O)cc1`, the Increase in series [1] was 65%; in series [2] it was 2%; in series [3], 15%; in series [4], 6%; in series [7], -20%; in series [5] it was 15%. For the same compound, the Activity in series [10] worked out at 11%; in series [12] it was 12%; in [13] it was 23%. In series [11], this compound had a max % ILS per µmol/kg of 0.18 %·kg/µmol.

As to `CCN(C)/N=N/c1ccc(C(N)=O)cc1`, in series [6] (read-out: logP), the log partition coefficient (logP) amounted to 1.7. Further, the Increase in [1] is recorded as 76%; in [2], 7%; in series [3], -31%; in series [4], 84%; in series [7], -49%; in series [5], 100%. The Activity in [8] stood at 61.8%; in series [9] it was 33.7%; in series [10], 28.2%. Further, the max % ILS per µmol/kg in series [11] was 0.693 %·kg/µmol.

Regarding `CN(C)/N=N/c1ccc(C(N)=O)cc1`, the Increase in [1] is on record as 51%; in series [2] it was 94%; in [3], -7%; in [4] it was 47%; in series [7] it was -26%; in series [5] it was 65%. Also, the Activity in series [8] is 57.3%; in series [9], 1.8%; in series [10], 55.5%. This compound gave a max % ILS per µmol/kg in series [11] of 1.45 %·kg/µmol.

In the case of `CCCCCCN(C)/N=N/c1ccc(C(N)=O)cc1`, the Increase worked out at 83% in series [1]; 4% in series [2]; 56% in series [3]; 9% in series [4]; 30% in [7]; 11% in series [5]. In addition, the Activity was determined as 27% in series [8], 14% in [9] and 13% in [10]. In series [11], this compound came in with a max % ILS per µmol/kg of 0.218 %·kg/µmol.

`CC(C)N(C)/N=N/c1ccc(C(=O)O)cc1`: in series [6] (read-out: logP), the logP came to 0.34.

On to `CCCCN(C)/N=N/c1ccc(C(N)=O)cc1`, for which the log partition coefficient (logP) in series [6] (read-out: logP) was found to be 2.46. The Increase is 83% in [1]; 18% in series [2]; -12% in [3]; 23% in [4]; -51% in [7]; 91% in [5]. For the same compound, the values for the Activity in series [8], in series [9] and in series [10] were 55%, 33.5% and 21.5%, respectively. The max % ILS per µmol/kg in [11] is 0.426 %·kg/µmol.

Regarding `CCCN(C)/N=N/c1ccc(C(=O)O)cc1`, in series [6] (read-out: logP), the logP is 0.46.

Turning to `CCCCCCCCCCCCN(C)/N=N/c1ccc(C(N)=O)cc1`, the Increase in [1] is -1%; in series [2], 1%; in series [3] it was 13%; in series [4], 3%; in series [7], 9%; in series [5], 3%. Further, the max % ILS per µmol/kg in series [11] was determined as 0.023 %·kg/µmol.

With `CC(C)N(C)/N=N/c1ccc(C(N)=O)cc1`, in series [6] (read-out: logP), the logP was 2. The Increase in series [1] was 41%; in [2] it was 21%; in series [3] it was -10%; in [4] it was 52%; in series [7], -60%; in [5], 45%. Besides, the max % ILS per µmol/kg in [11] came to 0.458 %·kg/µmol.

On to `CCCCCCCCN(C)/N=N/c1ccc(C(N)=O)cc1`, for which the logP in series [6] (read-out: logP) came out at 4.7. The Increase is listed as 19% in [1]; -2% in series [2]; 112% in [3]; 4% in series [4]; 56% in series [7]; 4% in [5]. Further, the Activity was 19.5% in series [8], 8% in series [9] and 11.5% in series [10]. In [11], this compound had a max % ILS per µmol/kg of 0.163 %·kg/µmol.

For `CN(O)/N=N/c1ccc(C(N)=O)cc1`, the Increase in [1] was found to be 19%; in series [3], 37%; in series [7], 55%; in [5], 19%. Further, in series [11], the max % ILS per µmol/kg came out at 0.036 %·kg/µmol.

As to `CCC(C)CN(C)/N=N/c1ccc(C(=O)O)cc1` (stereo not drawn), the logP in [6] (read-out: logP) stood at 1.33.

As for `CN(Cc1ccccc1)/N=N/c1ccc(C(N)=O)cc1`, the Increase is recorded as 9% in [1]; -3% in series [2]; 86% in series [3]; -1% in [4]; -36% in series [7]; 3% in [5]. In series [11], this compound gave a max % ILS per µmol/kg of 0.145 %·kg/µmol.

Take `CCN(C)/N=N/c1ccc(C(=O)O)cc1`: the logP in [6] (read-out: logP) was 0.04.

In the case of `CCCCN(C)/N=N/c1ccc(C(=O)O)cc1`, the log partition coefficient (logP) in [6] (read-out: logP) was 0.97.

Turning to `CCCCCCCN(C)/N=N/c1ccc(C(=O)O)cc1`, the lipophilicity (logP) in series [6] (read-out: logP) came out at 2.58.

In the case of `CCCCCCCCN(C)/N=N/c1ccc(C(=O)O)cc1`, the lipophilicity (logP) in [6] (read-out: logP) was 2.77.

Take `CCN(CC)/N=N/c1ccc(C(N)=O)cc1`: the Activity in series [8] is 53.3%; in series [9], 53.3%; in series [10], 0%.

Turning to `CCCN(C)/N=N/c1ccc(C(N)=O)cc1`, the Increase in series [1] was 41%; in [2], 7%; in series [3], 20%; in series [4], 113%; in series [7], -45%; in [5] it was 60%. In addition, the results for the Activity in series [8], in [9] and in series [10] were 58.3%, 33% and 25.3%, respectively. In addition, in series [11], the max % ILS per µmol/kg was determined as 0.996 %·kg/µmol.
